Tests used:
Format in all cases: in vivo
[1] = tested on: Rhipicephalus sanguineus; assay: Rhipicephalus sanguineus in-vitro contact test, adult brown dog ticks (RHIPSA Contact); settings: 5 μg/cm^2 (=500 g/ha), after 48 hours, read-out: activity (efficacy, ticks dead or moribund)
Method: Rhipicephalus sanguineus—in-Vitro Contact Tests with Adult Brown Dog Ticks (RHIPSA Contact)
9 mg compound is solved in 1 ml acetone and diluted with acetone to the desired concentration. 250 μl_, of the test solution is filled in 25 ml glass test tubes and homogeneously distributed on the inner walls by rotation and tilting on a shaking device (2 h at 30 rpm). With a compound concentration of 900 ppm, an inner surface of 44.7 cm^2 and a homogeneous distribution, a dose of 5 μg/cm^2 is achieved.
After the solvent has evaporated, each test tube is filled with 5-10 adult brown dog ticks (Rhipicephalus sanguineus), closed with a perforated lid and incubated in a lying position at room temperature and relative humidity. After 48 hours efficacy is determined. The ticks are patted on the ground of the tubes and are incubated on a heating plate at 45-50° C. for at most 5 minutes Immotile or uncoordinated moving ticks, which are not able to escape the heat by climbing upwards, are marked as dead or moribund.
An efficacy of 100% means all ticks are dead or moribund; 0% means no ticks are dead or moribund.

[2] = tested on: Diabrotica balteata; assay: Diabrotica balteata spray test; settings: 168 h, wheat seeds, after 7 days, read-out: activity (efficacy, seedlings grown); for pest or weed control at 160 µg/disc, 500 g/ha: 500 g/ha (=160 μg/well)
How it was run: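 Efficacy was read 7 days after infesting each unit with 10–20 banded cucumber beetle larvae, as % of seedlings growing like untreated, uninfested controls. Before infestation, wheat seeds germinated 1 day on agar (5 per well) were sprayed with the active ingredient. The active was formulated in acetone/DMF and diluted in water containing emulsifier.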

[3] = tested on: Ctenocephalides felis; assay: Ctenocephalides felis oral test (CTECFE); settings: 48 h, 100 ppm in cattle blood, after 2 days
Method: Ctenocephalides felis—Oral Test (CTECFE)
Solvent: dimethyl sulfoxide
To produce a suitable preparation of active compound, 10 mg of active compound are dissolved in 0.5 ml solvent, and the concentrate is diluted with cattle blood to the desired concentration.
Approximately 20 adult unfed cat fleas (Ctenocephalides felis) are placed in flea chambers. The blood chamber, sealed with parafilm on the bottom, are filled with cattle blood supplied with compound solution and placed on the gauze covered top of the flea chamber, so that the fleas are able to suck the blood. The blood chamber is heated to 37° C. whereas the flea chamber is kept at room temperature.
After 2 days mortality in % is determined. 100% means all the fleas have been killed; 0% means none of the fleas have been killed.

[4] = tested on: Spodoptera frugiperda; assay: Spodoptera frugiperda spray test; settings: in Zea mays, 168 h, read-out: activity (mortality)
How it was run: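 Larvae of fall armyworm placed on dried maize leaf sections previously sprayed with emulsified compound (acetone/DMF solvent, water with 1000 ppm emulsifier). Percent of caterpillars killed recorded on day 7, 0–100% scale.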

[5] = tested on: Rhipicephalus microplus (strain Parkhurst, resistant against synthetic pyrethroids); assay: Rhipicephalus microplus in-vitro contact test, larval cattle tick (BOOPMI Contact); settings: 5 μg/cm^2 (=500 g/ha), after 48 hours, read-out: activity (efficacy, larvae dead or moribund)
How it was run: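 Efficacy, expressed as percentage of larvae dead or moribund, is judged by negative geotactic behaviour 48 h after larvae (20-50 per tube) enter tubes whose inner walls carry a dried acetone film of compound, 5 μg/cm² at 900 ppm. Incubation: horizontal, 27 °C, 85% relative humidity.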

[6] = tested on: Boophilus microplus; assay: Boophilus microplus injection test (BOOPMI Injection); settings: Rhipicephalus microplus, 168 h, injection into adult engorged female ticks, egg deposition after 7 days, read-out: activity (efficacy, infertile eggs); for pest or weed control at 0.004 mg: 4 μg/animal; for pest or weed control at 0.02 mg: 20 μg/animal
How it was run: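 Adult engorged female ticks (5 per group) injected into the abdomen with 1 μL compound in DMSO, then held in a climate chamber. Fertile egg deposition scored after 7 days, with unclear eggs kept until hatching (~42 days). Efficacy 100% = all eggs infertile, 0% = all fertile.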

[7] = tested on: Ctenocephalides felis; assay: Ctenocephalides felis in-vitro contact test, adult cat flea; settings: 5 μg/cm^2 (=500 g/ha), after 48 hours, read-out: activity (efficacy, fleas dead or moribund)
Method: Ctenocephalides felis—in-Vitro Contact Tests Adult Cat Flea
9 mg compound is solved in 1 ml acetone and diluted with acetone to the desired concentration. […] the test solution is filled in 25 ml glass test tubes and homogeneously distributed on the inner walls by rotation and tilting on a shaking device (2 h at 30 rpm). With a compound concentration of 900 ppm, an inner surface of 44.7 cm^2 and a homogeneous distribution, a dose of 5 μg/cm^2 is achieved.
After the solvent has evaporated, each test tube is filled with 5-10 adult cat fleas (Ctenocephalides felis), closed with a perforated lid and incubated in a lying position at room temperature and relative humidity. After 48 hours efficacy is determined. The fleas are patted on the ground of the tubes and are incubated on a heating plate at 45-50° C. for at most 5 minutes Immotile or uncoordinated moving fleas, which are not able to escape the heat by climbing upwards, are marked as dead or moribund.
An efficacy of 100% means all fleas are dead or moribund; 0% means no fleas are dead or moribund.

SMILES | pest or weed control at 5 µg/cm2, 5 µg/cm2 [1] [%] | pest or weed control at 100 g/ha [2] [%] | pest or weed control at 160 µg/disc, 500 g/ha [2] [%] | mortality at 100 ppm [3] [%] | mortality at 100 g/ha [4] [%] | mortality at 500 g/ha [4] [%] | pest or weed control at 5 µg/cm2 [5] [%] | pest or weed control at 0.004 mg [6] [%] | pest or weed control at 0.02 mg [6] [%] | pest or weed control at 5 µg/cm2, 5 µg/cm2 [7] [%]
C[C@H](Nc1nc2cc(C(F)(F)F)c(Cl)cc2o1)c1ncnn1-c1ccc(C(F)(F)F)cn1 [Example I-031] | 80 | – | – | – | – | – | – | – | – | –
C[C@H](Nc1nc2cc(C(F)(F)F)cc(Br)c2o1)c1ncnn1-c1ncccn1 [Example I-034] | 100 | 100 | 80 | 100 | 100 | 100 | 90 | 100 | 100 | –
C[C@H](Nc1nc2cc(C(F)(F)F)cc(Cl)c2o1)c1ncnn1-c1cnccn1 [Example I-039, 7-chloro-N-{(1S)-1-[1-(pyrazin-2-yl)-1H-1,2,4-triazol-5-yl]ethyl}-5-(trifluoromethyl)-1,3-benzoxazol-2-amine] | 100 | 100 | 100 | 100 | – | 100 | 90 | 100 | 100 | –
C[C@H](Nc1nc2cc(C(F)(F)F)cc(Cl)c2o1)c1ncnn1-c1ccncn1 [Example I-047, 7-Chlor-N-{(1S)-1-[1-(pyrimidin-4-yl)-1H-1,2,4-triazol-5-yl]ethyl}-5-(trifluormethyl)-1,3-benzoxazol-2-amin] | 100 | 100 | 100 | – | 100 | 100 | 100 | 100 | 100 | –
C[C@H](Nc1nc2cc(C(F)(F)F)cc(Br)c2o1)c1ncnn1-c1ccc(C#N)cn1 [Example I-055, 6-[5-[(1S)-1-{[7-Brom-5-(trifluormethyl)-1,3-benzoxazol-2-yl]amino}ethyl]-1H-1,2,4-triazol-1-yl}nicotinonitril] | 100 | 100 | 100 | – | 100 | 100 | 100 | 80 | 100 | –
C[C@H](Nc1nc2cc(C(F)(F)F)c(Cl)cc2o1)c1ncnn1-c1ncc(Br)cn1 [Example I-062, N-{(1S)-1-[1-(5-Brompyrimidin-2-yl)-1H-1,2,4-triazol-5-yl]ethyl}-6-chlor-5-(trifluormethyl)-1,3-benzoxazol-2-amin] | 100 | 100 | 100 | – | 100 | 100 | 100 | 100 | 100 | 100
C[C@H](Nc1nc2cc(C3CC3)cc(Cl)c2o1)c1ncnn1-c1ncccn1 [Example I-065, 7-Chlor-5-cyclopropyl-N-{(1S)-1-[1-(pyrimidin-2-yl)-1H-1,2,4-triazol-5-yl]ethyl}-1,3-benzoxazol-2-amin] | 100 | 100 | 100 | 100 | – | – | – | 100 | 100 | 100
CC(C)c1cc(Cl)c2oc(N[C@@H](C)c3ncnn3-c3ccncn3)nc2c1 [Example I-066, 7-Chlor-5-isopropyl-N-{(1S)-1-[1-(pyrimidin-4-yl)-1H-1,2,4-triazol-5-yl]ethyl}-1,3-benzoxazol-2-amin] | 80 | – | 100 | – | – | – | 90 | 100 | 100 | –
C[C@H](Nc1nc2cc(S(F)(F)(F)(F)F)cc(Cl)c2o1)c1ncnn1-c1ncc(Br)cn1 [Example I-083, N-{(1S)-1-[1-(5-Brompyrimidin-2-yl)-1H-1,2,4-triazol-5-yl]ethyl}-7-chlor-5-(pentafluor-lambda^6-sulfanyl)-1,3-benzoxazol-2-amin] | 100 | 80 | – | – | 100 | – | 100 | – | – | 80
CC(Nc1nc2cc(C#N)cc(Cl)c2o1)c1ncnn1-c1ncccn1 (stereo not drawn) [Example I-084, 7-Chlor-2-({1-[1-(pyrimidin-2-yl)-1H-1,2,4-triazol-5-yl]ethyl}amino)-1,3-benzoxazol-5-carbonitril] | 80 | – | 100 | – | – | – | 80 | 100 | 100 | 100
C[C@H](Nc1nc2cc(Cl)cc(C(F)(F)F)c2o1)c1ncnn1-c1ncccn1 [Example I-090, 5-Chlor-N-{(1S)-1-[1-(pyrimidin-2-yl)-1H-1,2,4-triazol-5-yl]ethyl}-7-(trifluormethyl)-1,3-benzoxazol-2-amin] | 100 | – | 100 | – | – | 100 | 100 | 80 | 100 | –
C[C@H](Nc1nc2cc(Cl)c(C(F)(F)F)cn2n1)c1ncnn1-c1ncccn1 [Example I-097, 7-chloro-N-{(1S)-1-[1-(pyrimdin-2-yl)-1H-1,2,4-triazol-5-yl]ethyl}-6-(trifluoromethyl)[1,2,4]triazolo[1,5-a]pyridin-2-amine] | 80 | – | – | – | – | – | 100 | – | – | 100
